Experimental data taken from US20170348381A1, “FORMULATION” (NovaBiotics Limited, priority 2016, published 2017).

Assays:
Format in all cases: cell-based
A. fumigatus [1] = assay: Antimicrobial susceptibility testing (CLSI M27-A3/M38-A2, chequerboard), MIC100, Example 2; conditions: for MIC100 of the antifungal in combination with Novamycin (+): in combination with MIC100 and sub-MIC100 concentrations of Novamycin; for MIC: Aspergillus fumigatus
Experimental: (§1) Antimicrobial susceptibility testing was performed based on CLSI approved standards M27-A3 and M38-A2. The effects of antimicrobial combinations were evaluated using a chequerboard method (Burkhart et al., 2006) in CLSI conditions.
(§2) Table 1. The MIC100 of clinically used antifungals individually (−) and in combination (+) with Novamycin®.
(§3) (−)=MIC100 (μg/mL) of the antifungal alone (+)=MIC100 (μg/mL) of the antifungal in combination with Novamycin®—=Not analysed

C. albicans [2] = assay: as above; conditions: for MIC100 of the antifungal in combination with Novamycin (+): in combination with MIC100 and sub-MIC100 concentrations of Novamycin; for MIC: Candida albicans
Experimental: as §1, §2, §3

E. dermatitidis = assay: as above; conditions: for MIC100 of the antifungal in combination with Novamycin (+): in combination with MIC100 and sub-MIC100 concentrations of Novamycin; for MIC: Exophiala dermatitidis
Experimental: as §1, §2, §3

A. fumigatus [3] = assay: Neutral, additive or synergistic effect of combinations of novamycin plus other antifungal agents, Example 3; conditions: for Antifungal MIC100: antifungal alone; for MIC100 in Combination, AF: antifungal in combination with Novamycin; for Effect: combination of the antifungal with Novamycin
Experimental: as §1
(§4) The neutral, additive or synergistic effect of combinations of novamycin plus other antifungal agents was studied.

C. albicans [4] = assay: as above; conditions: for Antifungal MIC100: antifungal alone; for MIC100 in Combination, AF: antifungal in combination with Novamycin; for Effect: combination of the antifungal with Novamycin
Experimental: as §1, §4

| SMILES | MIC100 of the antifungal alone (−) (A. fumigatus [1]; antifungal alone) | MIC100 of the antifungal in combination with Novamycin (+) (A. fumigatus [1]) | MIC100 of the antifungal alone (−) (C. albicans [2]; antifungal alone) | MIC100 of the antifungal in combination with Novamycin (+) (C. albicans [2]) | MIC100 of the antifungal alone (−) (E. dermatitidis; antifungal alone) | MIC100 of the antifungal in combination with Novamycin (+) (E. dermatitidis) | Antifungal MIC100 (A. fumigatus [3]) | MIC100 in Combination, AF (A. fumigatus [3]) | Effect (A. fumigatus [3]) | Antifungal MIC100 (C. albicans [4]) | MIC100 in Combination, AF (C. albicans [4]) | Effect (C. albicans [4]) | MIC (A. fumigatus [1]; antifungal alone) | MIC (C. albicans [2]; antifungal alone) | MIC (E. dermatitidis; antifungal alone) |
| --- | --- | --- | --- | --- | --- | --- | --- | --- | --- | --- | --- | --- | --- | --- | --- |
| C[C@@H]1[C@H](O)[C@@H](C)/C=C/C=C/C=C/C=C/C=C/C=C/C=C/[C@H](O[C@@H]2O[C@H](C)[C@@H](O)[C@H](N)[C@@H]2O)C[C@@H]2O[C@](O)(C[C@@H](O)C[C@@H](O)[C@H](O)CC[C@@H](O)C[C@@H](O)CC(=O)O[C@H]1C)C[C@H](O)[C@H]2C(=O)O [AmB, amphotericin B] | 0.25 µg/mL | 0.03 µg/mL | 0.25 µg/mL | 0.13 µg/mL | 1 µg/mL | 0.12 µg/mL | 0.25 µg/mL | 0.03 µg/mL | Additive | 0.5 µg/mL | 0.05 µg/mL | Additive |  |  |  |
| CC[C@H](C)C[C@H](C)CCCCCCCCC(=O)N[C@H]1C[C@@H](O)[C@@H](NCCN)NC(=O)[C@@H]2[C@@H](O)CCN2C(=O)[C@H]([C@H](O)CCN)NC(=O)[C@H]([C@H](O)[C@@H](O)c2ccc(O)cc2)NC(=O)[C@@H]2C[C@@H](O)CN2C(=O)[C@H]([C@@H](C)O)NC1=O [CFN, caspofungin] |  | 0.06 µg/mL |  | 0.03 µg/mL |  | 3.94 µg/mL | 0.06 µg/mL | 0.04 µg/mL | Additive | 0.5 µg/mL | 0.03 µg/mL | Additive | 0.06 µg/mL | 0.5 µg/mL | 31.2 µg/mL |
| CCC(C)n1ncn(-c2ccc(N3CCN(c4ccc(OCC5COC(Cn6cncn6)(c6ccc(Cl)cc6Cl)O5)cc4)CC3)cc2)c1=O (stereo not drawn) [ITZ, itraconazole] |  |  |  |  |  | 2 µg/mL |  |  |  |  |  |  |  |  | 4 µg/mL |
| CC[C@@H]([C@H](C)O)n1ncn(-c2ccc(N3CCN(c4ccc(OC[C@@H]5CO[C@@](Cn6cncn6)(c6ccc(F)cc6F)C5)cc4)CC3)cc2)c1=O [PCZ, pozaconazole] |  | 0.125 µg/mL |  | 0.06 µg/mL |  |  | 0.25 µg/mL | 0.125 µg/mL | Additive | < 0.03 µg/mL | < 0.03 µg/mL | Neutral | 0.25 µg/mL | 0.13 µg/mL |  |
| C[C@@H](c1ncncc1F)[C@](O)(Cn1cncn1)c1ccc(F)cc1F [Voriconazole] |  |  |  |  |  |  | 0.25 µg/mL | 0.25 µg/mL | Neutral |  |  |  |  |  |  |
